ChEMBL document CHEMBL1152710, “The design and discovery of novel amide CCR5 antagonists” (Bioorg Med Chem Lett, 2009)

Experiments:
[1] = molecular target: T1, C-C chemokine receptor type 5 (Homo sapiens, UniProt P51681); assay: Antagonist activity at human recombinant CCR5 expressed in human HeLa-P4 cells assessed as inhibition of human HeLa-P4 cells binding to HIV1 gp160 expressing CHO cells at 10 uM by cell-cell fusion assay; format: cell-based; parameters: scale not given: the % may be the effect or the level left
Target sequence in this assay (P51681 whole entry, looked up, the tested form may be a part): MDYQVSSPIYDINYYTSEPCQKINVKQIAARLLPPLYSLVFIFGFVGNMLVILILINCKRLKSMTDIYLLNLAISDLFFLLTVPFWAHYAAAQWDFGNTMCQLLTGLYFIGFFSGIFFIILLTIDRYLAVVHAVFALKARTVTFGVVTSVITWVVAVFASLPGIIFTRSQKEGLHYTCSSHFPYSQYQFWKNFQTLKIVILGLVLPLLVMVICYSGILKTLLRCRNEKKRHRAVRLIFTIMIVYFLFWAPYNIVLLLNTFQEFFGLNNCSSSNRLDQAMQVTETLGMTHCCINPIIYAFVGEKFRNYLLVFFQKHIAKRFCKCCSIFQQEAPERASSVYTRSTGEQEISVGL

[2] = molecular target: T1, C-C chemokine receptor type 5; assay: Antagonist activity at human recombinant CCR5 expressed in human HeLa-P4 cells assessed as inhibition of human HeLa-P4 cells binding to HIV1 gp160 expressing CHO cells at 1 uM by cell-cell fusion assay; format: cell-based; parameters: scale not given: the % may be the effect or the level left
Target sequence in this assay (P51681 whole entry, looked up, the tested form may be a part): as above

[3] = molecular target: T1, C-C chemokine receptor type 5; assay: Antagonist activity at human recombinant CCR5 expressed in human HeLa-P4 cells assessed as inhibition of human HeLa-P4 cells binding to HIV1 gp160 expressing CHO cells at 100 nM by cell-cell fusion assay; format: cell-based; parameters: scale not given: the % may be the effect or the level left
Target sequence in this assay (P51681 whole entry, looked up, the tested form may be a part): as above

[4] = system: Human immunodeficiency virus 1; assay: Antiviral activity against HIV1 Bal infected in human PM1 cells assessed as inhibition of viral replication; format: functional; details: Human immunodeficiency virus 1, Bal
[5] = molecular target: T1, C-C chemokine receptor type 5; assay: Displacement of [125]Mip1beta form CCR5 receptor expressed in MIP34.10 cells; format: cell-based
Target sequence in this assay (P51681 whole entry, the tested form may be a part): as the sequence (P51681 whole entry, looked up, the tested form may be a part) above

[6] = molecular target: Voltage-gated inwardly rectifying potassium channel KCNH2 (Homo sapiens, UniProt Q12809); assay: Displacement of [3H]dofetilide form human ERG expressed in HEK239 cells
[7] = Lipophilicity, log D at pH 7.4; format: physicochemical; details: buffer
[8] = Metabolic stability in human liver microsomes assessed as intrinsic clearance at 1 uM after 30 mins; format: ADME, Microsome

Chain of Voltage-gated inwardly rectifying potassium channel KCNH2 (Q12809 whole entry): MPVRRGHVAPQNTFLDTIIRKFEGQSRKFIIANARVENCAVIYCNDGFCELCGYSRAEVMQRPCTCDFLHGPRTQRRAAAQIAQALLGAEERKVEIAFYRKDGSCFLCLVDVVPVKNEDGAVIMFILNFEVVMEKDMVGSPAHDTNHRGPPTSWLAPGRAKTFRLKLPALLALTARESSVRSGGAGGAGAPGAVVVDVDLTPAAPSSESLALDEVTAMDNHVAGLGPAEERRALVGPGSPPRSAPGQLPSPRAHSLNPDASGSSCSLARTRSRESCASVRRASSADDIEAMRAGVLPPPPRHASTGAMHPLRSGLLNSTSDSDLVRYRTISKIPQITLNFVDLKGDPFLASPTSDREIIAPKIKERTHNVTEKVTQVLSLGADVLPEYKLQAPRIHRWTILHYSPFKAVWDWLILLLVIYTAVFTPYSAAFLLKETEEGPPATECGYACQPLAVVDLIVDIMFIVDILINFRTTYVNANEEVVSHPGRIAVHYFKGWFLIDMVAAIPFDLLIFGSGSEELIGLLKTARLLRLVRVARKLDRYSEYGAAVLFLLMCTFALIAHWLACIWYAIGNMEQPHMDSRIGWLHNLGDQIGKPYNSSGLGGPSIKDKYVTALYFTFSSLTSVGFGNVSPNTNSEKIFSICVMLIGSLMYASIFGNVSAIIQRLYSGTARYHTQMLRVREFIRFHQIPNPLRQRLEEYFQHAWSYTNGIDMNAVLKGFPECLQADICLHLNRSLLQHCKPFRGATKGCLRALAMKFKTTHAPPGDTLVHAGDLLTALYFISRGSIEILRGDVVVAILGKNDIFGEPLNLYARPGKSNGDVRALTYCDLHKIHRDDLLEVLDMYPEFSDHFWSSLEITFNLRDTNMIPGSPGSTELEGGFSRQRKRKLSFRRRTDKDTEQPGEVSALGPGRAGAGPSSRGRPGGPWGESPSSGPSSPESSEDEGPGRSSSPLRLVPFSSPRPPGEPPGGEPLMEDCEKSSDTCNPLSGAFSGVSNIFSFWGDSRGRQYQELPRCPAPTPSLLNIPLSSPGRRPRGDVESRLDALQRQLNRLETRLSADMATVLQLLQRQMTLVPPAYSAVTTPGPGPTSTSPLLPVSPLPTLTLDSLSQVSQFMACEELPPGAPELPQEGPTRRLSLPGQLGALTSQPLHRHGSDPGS

CC(=O)NC(c1ccccc1)[C@H]1CCN(C2CCN(C(=O)c3c(C)cccc3C)CC2)C1 (single isomer, unassigned; diastereomer 2)
Activity [1]: 0%

CC(=O)NC(c1ccccc1)[C@H]1CCN(C2CCN(C(=O)c3c(C)cccc3C)CC2)C1 (single isomer, unassigned; diastereomer 1)
Activity [2]: 18%

Cc1ccnc(C)c1C(=O)NCCN1CCN(C(c2ccccc2)c2ccccc2)CC1
Activity [3]: 15%

Cc1ccnc(C)c1C(=O)N1C2CCC1CN(C1CCN(C(c3ccccc3)c3ccccc3)CC1)C2
Activity [3]: 12%

CC(=O)NC(c1ccccc1)C1CCCN(C2CCN(C(=O)c3c(C)cccc3C)CC2)C1 (single isomer, unassigned; diastereomer 2)
Activity [1]: 0%

Cc1ccnc(C)c1C(=O)N1CCC(N2CCC(C(Cc3ccccc3)C(=O)NCC3CC3)CC2)CC1 (centres undefined)
Activity [1]: 20%

CC(=O)NC(c1ccccc1)C1CCCN(CCNC(=O)c2c(C)cccc2C)C1 (single isomer, unassigned; diastereomer 2)
Activity [1]: 12%

CC(=O)NC1(c2ccccc2)CCN(C2CCN(C(=O)c3c(C)ccnc3C)CC2)CC1
Activity [1]: 20%

CC(=O)NC(CN1CC(N(C)C2CCN(C(=O)c3c(C)cccc3C)CC2)C1)c1ccccc1 (centres undefined)
Activity [1]: 50%

Cc1ccnc(C)c1C(=O)N1CCN(C2C[C@H]3CC[C@@H](C2)N3C(c2ccccc2)c2ccccc2)CC1 (mixture of isomers)
Activity [1]: 25%

Cc1ccnc(C)c1C(=O)N1[C@@H]2CC[C@H]1C[C@@H](N1CCN(C(c3ccccc3)c3ccccc3)CC1)C2
Activity [1]: 21%

Cc1cccc(C)c1C(=O)N1CCC(N2CC[C@@H](N(Cc3ccccc3)C(=O)C3CC3)C2)CC1
IC90 [4]: 2 nM
IC50 [5]: 8 nM
IC50 [6]: 9800 nM
logD [7]: 2.6
microsomal CLint at 1 µM [8]: 195 µL/min/mg

Cc1ccnc(C)c1C(=O)N1CCN(CCC(c2ccccc2)c2ccccc2)CC1
Activity [1]: 0%

Cc1cccc(C)c1C(=O)N1CCC(N2[C@@H]3CC[C@H]2C[C@H](N(Cc2ccccc2)C(=O)C2CC2)C3)CC1
Activity [2]: 10%

Cc1ccnc(C)c1C(=O)N1[C@@H]2CC[C@H]1C[C@H](N1CCN(C(c3ccccc3)c3ccccc3)CC1)C2
Activity [3]: 6%

Cc1ccnc(C)c1C(=O)N1CCC(N2CCC(CNC(=O)C3CC3)(Cc3ccccc3)CC2)CC1
Activity [2]: 18%

Cc1ccnc(C)c1C(=O)N1CCC(N(C)CCC(c2ccccc2)c2ccccc2)CC1
Activity [3]: 13%

CC(=O)NC(c1ccccc1)C1CCCN(CCNC(=O)c2c(C)cccc2C)C1 (single isomer, unassigned; diastereomer 1)
Activity [1]: 20%

Cc1cccc(C)c1C(=O)N1CCC(N(C)C2CN(C(CNC(=O)C3CCC3)c3ccccc3)C2)CC1 (centres undefined)
Activity [1]: 20%

Cc1cccc(C)c1C(=O)N1CCC(N2CCCC(N(Cc3ccccc3)C(=O)C3CC3)C2)CC1 (racemic)
Activity [1]: 19%

CC(=O)NC(c1ccccc1)C1CCCN(C2CCN(C(=O)c3c(C)cccc3C)CC2)C1 (single isomer, unassigned; diastereomer 1)
Activity [1]: 28%

Cc1cccc(C)c1C(=O)N1CCC(N2CCCC(CC(NC(=O)C3CCC3)c3ccccc3)C2)CC1 (mixture of isomers)
Activity [1]: 20%

Cc1cccc(C)c1C(=O)N1CCC(N2CCC(N(Cc3ccccc3)C(=O)C3CCC3)CC2)CC1
IC90 [4]: 40 nM
logD [7]: 3.5
microsomal CLint at 1 µM [8]: 205 µL/min/mg
